pIC50: −log10 of the molar value.
Molecular target: WD repeat-containing protein 5 (Homo sapiens, UniProt P61964)
Test: Binding affinity to his sumo tagged N-terminal WDR5 (23 to […] residues) (unknown origin) incubated for 3 hrs by HTRF binding assay

pIC50, < 4.00:
NCCCC[C@H](NC(=O)[C@H](Cc1c[nH]c2ccccc12)NC(=O)[C@H](CCC(N)=O)NC(=O)[C@H](CC(N)=O)NC(=O)[C@@H]1CCCN1C(=O)[C@@H](N)CS)C(=O)N[C@@H](CO)C(=O)N[C@@H](Cc1ccc(O)cc1)C(=O)N[C@@H](CS)C(=O)O
CC(C)C[C@H](NC(=O)[C@H](Cc1ccccc1)NC(=O)[C@@H](N)CS)C(=O)N[C@@H](CC(N)=O)C(=O)N[C@H](C(=O)N[C@@H](CO)C(=O)N[C@@H](CC(N)=O)C(=O)N[C@@H](C)C(=O)N[C@@H](CS)C(=O)O)C(C)C
CC(C)[C@H](NC(=O)[C@H](CC(=O)O)NC(=O)[C@H](C)NC(=O)[C@H](CCC(=O)O)NC(=O)CNC(=O)[C@H](CCC(=O)O)NC(=O)CNC(=O)[C@@H](N)CS)C(=O)N[C@@H](CS)C(=O)O
